The values that follow come from patent publication US4609673A, “Carboxylic acid derivatives, processes for the preparation thereof and pharmaceutical compositions containing them” (Boehringer Mannheim GmbH, priority 1984, dated 1986).

For one assay, the system named is citrate synthase. The settings on record: Angew. Chem., 92, 133/1980; cited from earlier work.
A further assay concerns HMG-CoA-reductase. The settings on record: cited from earlier work.
For the next assay, the system named is HMG-CoA synthase. The settings on record: J. Biol. Chem., 257, 2842/1982; cited from earlier work.
A further assay deals with Rat hepatocytes. Put plainly: 14C-acetate incorporation into cholesterol (cholesterol biosynthesis) in rat hepatocytes. It counts as cell-based. To be noted: Hepatocyte, end concentration about 10^-5 M, 48 h incubation, DMSO, related to solvent treated control. As for the experimental part:
Rat hepatocytes were isolated according to Berry and Friend (J. Cell Biol., 43, 506-520 (1969)) and cultured as described by Davis et al. (J. Biol. Chem., 254, 2010-2016 (1979)). 2-^14 C-Acetate was used as a precursor for determination of the cholesterol biosynthesis. Newly synthetized cholesterol was determined by liquid scintillation spectrometry after extraction of radiolabelled sterols from the culture medium (Can. J. Biochem. Physiol., 37, 912-917 (1959)). The test compounds were dissolved in dimethylsulfoxide. 1 μl of this solution was given to 1 ml of the culture medium. The percentage of inhibition of ^14 C-acetate incorporation is related to a solvent treated control.
The compounds listed in the following table were tested with respect to their effect on the rate hepatocytes according to the method mentioned above. The compounds were dissolved in DMSO. 1 μl of this solution was added to 1 ml of the culture medium.
The end concentration was about 10^-5 M, the period of the incubation was 48 h. The ^14 C-acetate incorporation in cholesterol was determined.

For the compound `CC(C)(COP(=O)(O)OP(=O)(O)OC[C@H]1O[C@@H](n2cnc3c(N)ncnc32)[C@H](O)[C@@H]1OP(=O)(O)O)[C@@H](O)C(=O)NCCC(=O)NCCSCCC(O)(CC(=O)O)C(=O)O` (stereo partly drawn) [3,4-dicarboxy-3-hydroxybutylcoenzyme A], the “inhibiting action on the enzyme citrate synthase (in words)” value in the assay with citrate synthase was “exerts an inhibiting action”.

Consider `CC(O)(CCSCCNC(=O)CCNC(=O)[C@H](O)C(C)(C)COP(=O)(O)OP(=O)(O)OC[C@H]1O[C@@H](n2cnc3c(N)ncnc32)[C@H](O)[C@@H]1OP(=O)(O)O)CC(=O)O` (stereo partly drawn) [3-hydroxy-3-methyl-4-carboxybutyl-coenzyme A], for which the “inhibiting action on the enzyme HMG-CoA-reductase (in words)” value in the assay on HMG-CoA-reductase (FEBS Letters, 128, 145/1981) was “possesses an inhibiting action”.

For the compound `CC(=O)CCSCCNC(=O)CCNC(=O)[C@H](O)C(C)(C)COP(=O)(O)OP(=O)(O)OC[C@H]1O[C@@H](n2cnc3c(N)ncnc32)[C@H](O)[C@@H]1OP(=O)(O)O` [3-oxobutyl-coenzyme A], the “substrate for HMG-CoA synthase (in words)” value in the assay with HMG-CoA synthase is recorded as “substrate”.

A word on the inhibition: it is the drop in the measured response relative to a control, in per cent. A lower inhibition goes with a weak effect. As for `CC[C@H](C)C(=O)O[C@H]1CCC=C2C=C[C@H](C)[C@H](CC[C@@H]3C[C@@H](O)CC(=O)O3)[C@H]21` [Compactin, 2-Methylbutanoic acid 1,2,3,7,8,8α-hexahydro-7-methyl-8-[2-(tetrahydro-4-hydroxy-6-oxo-2H-pyran-2-yl)ethyl]-1-naphthalenyl ester], the “inhibitor of HMG-CoA reductase (in words)” value in the assay with HMG-CoA-reductase (comparison compound) is reported as “potent inhibitor”. In addition, testing at 10 µM in the assay with Rat hepatocytes gave an inhibition of 59%.

In the assay on Rat hepatocytes, `CC(O)(CCSCCNC(=O)CCNC(=O)C(O)C(C)(C)CO)CC(=O)O` (stereo not drawn) [Example 2, 9,13-Diaza-10,14-dioxo-6-thia-3,15,17-trihydroxy-3,16,16-trimethylheptadecanoic acid] gave an inhibition at 10 µM of 33%.

The compound `CCOC(=O)CC(C)(C)CCSCCNC(=O)CCNC(=O)C(O)C(C)(C)CO` (stereo not drawn) [Example 11, 9,13-Diaza-15,17-dihydroxy-10,14-dioxo-3,3,16,16-tetramethyl-6-thiaheptadecanoic acid ethyl ester] gave an inhibition at 10 µM with Rat hepatocytes of 28%.

As to `CC(CC(=O)NCCSCCC(C)(C)CC(=O)O)NC(=O)c1ccccc1` (stereo not drawn) [Example 15d, 9,13-diaza-10,14-dioxo-14-phenyl-6-thia-3,3,12-trimethyltetradecanoicacid], in the assay on Rat hepatocytes, testing at 10 µM gave an inhibition of 12%.

In the assay with Rat hepatocytes, `O=C(O)CCCCSCCNC(=O)CNCc1ccccc1` [Example 16, 9,12-Diaza-10-oxo-13-phenyl-6-thiatridecanoic acid] gave an inhibition at 10 µM of 10%.
